Consider one molecule from paper PMC5352362, “Molecular and functional evaluation of a novel HIF inhibitor, benzopyranyl 1,2,3-triazole compound” (Oncotarget, 2016).

Each structure is given as a SMILES string.

Experiment [1] has as its system secreted VEGF. As to the kind of experiment: VEGF ELISA of A549 culture media. It counts as cell-based, human. Conditions: A549 cells, 10 and 100 nM, 16 h. The source says:
As HIF-1α regulates transcription of its target genes, which are involved in angiogenesis, glucose metabolism, and metastasis in tumor progression, we determined the effects of Compound 12 on HIF-1 target gene expression at the mRNA level by semiquantitative RT-PCR. […] Thus, we checked secreted VEGF protein levels in culture media via ELISA.
Figure 5 Compound 12 suppressed HIF-1α target gene expression, and confirmation of in vitro results via determination of effects on angiogenesis in vivo (A) A549 cells were treated with Compound 12 (at concentrations of 0 nM, 1 nM, 10 nM, and 100 nM) for 16 h. The mRNA levels of HIF-1α target genes were determined by semiquantitative RT-PCR. β-actin was used as an internal control. D. DMSO vehicle control. N, normoxia; H, hypoxia. […] Media supernatant was collected, and secreted VEGF was determined by ELISA after removal of cellular debris. […] Cells that migrated through the membrane (8 μm pore size) were stained with hematoxylin and eosin, pictured as shown in upper panel, and counted (graph). *P < 0.05, **P < 0.01 versus VEGF-treated control. […] (F) Compound 12 (0.1 μg and 1 μg dosages) and retinoic acid (RA, positive control) were applied to the ED 4.5 CAM for two days, neovessel formation from the large vessels was observed, and percentages of positive angiogenic eggs (from total eggs tested) were calculated. […]
For orientation: ELISA stands for enzyme-linked immunosorbent assay.

Experiment [2] has as its system HUVECs. Put plainly: BrdU cell proliferation assay, VEGF-induced. The experiment is classed as cell-based, human. Conditions: VEGF 20 ng/mL. The method, then:
Figure 5 Compound 12 suppressed HIF-1α target gene expression, and confirmation of in vitro results via determination of effects on angiogenesis in vivo (A) A549 cells were treated with Compound 12 (at concentrations of 0 nM, 1 nM, 10 nM, and 100 nM) for 16 h. The mRNA levels of HIF-1α target genes were determined by semiquantitative RT-PCR. β-actin was used as an internal control. D. DMSO vehicle control. N, normoxia; H, hypoxia. (B) A549 cells were treated with serum-reduced culture media containing Compound 12 (at concentrations of 0 nM, 10 nM, and 100 nM) for 16 h. Media supernatant was collected, and secreted VEGF was determined by ELISA after removal of cellular debris. N, normoxia; H, hypoxia. **P < 0.01 versus hypoxia (H) DMSO (D)-treated control. (C) HUVECs were treated with Compound 12, at the indicated concentrations, in the presence of VEGF (20 ng/mL) for 24 h in 1% serum-containing media. […] Cells that migrated through the membrane (8 μm pore size) were stained with hematoxylin and eosin, pictured as shown in upper panel, and counted (graph). *P < 0.05, **P < 0.01 versus VEGF-treated control. […] (F) Compound 12 (0.1 μg and 1 μg dosages) and retinoic acid (RA, positive control) were applied to the ED 4.5 CAM for two days, neovessel formation from the large vessels was observed, and percentages of positive angiogenic eggs (from total eggs tested) were calculated. […]

The subject of experiment [3] is HUVECs. As to the kind of experiment: Matrigel tube formation assay, VEGF-induced. The experiment is classed as cell-based, human. As to conditions: VEGF 20 ng/mL, 24 h.
Experiment [4] deals with angiogenesis (hemoglobin content of Matrigel plug). As to the kind of experiment: Matrigel plug assay in C57BL/6J mice. It counts as in vivo, mouse. As to conditions: Compound 12 100 nM, gefitinib 5 μM in Matrigel, 10 days. The method, then:
HIF-1α is synthesized by growth factor signaling pathways, such as those of EGFR [30] [31]. Inhibition of HIF-1α in its pathways of synthesis, as well as in its pathway of degradation, would seem to make for a more efficient anti-cancer/anti-angiogenesis treatment. To confirm this, we performed a tumor allogaft experiment using Lewis lung carcinoma (LLC) cells. 1 × 10^6 LLC cells were inoculated into the mouse flank subcutaneously (s.c.), and treatment with Compound 12 (5 mg/kg) and/or gefitinib (an EGFR inhibitor, 50 mg/kg), via intraperitoneal (i.p.) administration, was performed every other day for 20 days. […] To confirm the effect of Compound 12 on angiogenesis, we analyzed angiogenesis using the Matrigel plug assay. […]
Figure 6 Compound 12 suppressed allogaft tumor growth and enhanced the effects of a chemotherapeutic agent (A, B) Lewis lung carcinoma cells were inoculated into flanks of C57BL/6J mice (Day 0). […] Tumor size (A) and tumor weight (B) were measured three times a week and on the final day, respectively. […] The content of hemoglobin was quantified and graphed. (D) Tumor tissue sections (10 μm) indicated were stained with H&E and immunostained with anti-CD31 antibody to detect microvessel density; CD31+ cell percentages were then calculated and graphed. […] (F) Images and quantitative comparisons (graph) for Ki67+ proliferating cells in tumor center regions are shown. […]

As for `COc1ccc(-c2cn(CC3(C)C=Cc4cc([N+](=O)[O-])ccc4O3)nn2)cc1` (stereo not shown) [Compound 12, 4-(4-methoxyphenyl)-1-((2-methyl-6-nitro-2H-chromen-2-yl)methyl)-1H-1,2,3-triazole], the “hypoxia-induced VEGF secretion” value in experiment [1] is “significantly suppressed hypoxia-induced VEGF secretion, in a dose-dependent manner”. Also, the “VEGF-induced endothelial cell proliferation (BrdU)” value in experiment [2] is “significantly inhibited VEGF-induced proliferation”. The VEGF-induced tube formation result in experiment [3] was “significantly inhibited”. In addition, the “anti-angiogenic activity, Matrigel plug (hemoglobin content)” value in experiment [4] was “anti-angiogenic activity was increased”.
